Where “and” joins values, the source holds several entries; their conditions need not be identical. Identical values can stand only once. Inconclusive results are not listed.
Test system: BDF1 mice, s.c. Lewis lung carcinoma, T/C %
Test: NCI In Vivo Anticancer Drug Screen. Data for tumor model Lewis Lung Carcinoma (subcutaneous) in B6D2F1 (BDF1) mice
How it was run: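 First, mice carry a transplantable tumor. Next, groups receive either compound or vehicle. Finally, survival or tumor dimensions in the dosed animals are divided by the corresponding control figure.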

[1] = endpoint: median survival time, dose: 12.5 mg/kg/injection, schedule: Q01DX009 (ip), vehicle: Klucel (hydroxypropylcellulose) (HPC), higher = longer survival
[2] = endpoint: mean tumor weight, dose: 25.0 mg/kg/injection, schedule: Q01DX011 (ip), vehicle: saline, higher = larger tumour
[3] = endpoint: mean tumor weight, dose: 50.0 mg/kg/injection, schedule: Q01DX011 (ip), vehicle: saline, higher = larger tumour
[4] = endpoint: mean tumor weight, dose: 100.0 mg/kg/injection, schedule: Q01DX011 (ip), vehicle: saline, higher = larger tumour
[5] = endpoint: mean tumor weight, dose: 200.0 mg/kg/injection, schedule: Q01DX011 (ip), vehicle: saline, higher = larger tumour
[6] = endpoint: mean tumor weight, dose: 12.5 mg/kg/injection, schedule: Q01DX011 (ip), vehicle: saline, higher = larger tumour
[7] = endpoint: median survival time, dose: 50.0 mg/kg/injection, schedule: Q01DX009 (ip), vehicle: saline, higher = longer survival

CC1OC(=O)C(C(C)C)NC(=O)C(C(C)C)OC(=O)C(C(C)C)NC(=O)C(C)OC(=O)C(C(C)C)NC(=O)C(C(C)C)OC(=O)C(C(C)C)NC(=O)C(C)OC(=O)C(C(C)C)NC(=O)C(C(C)C)OC(=O)C(C(C)C)NC1=O (centres undefined) was tested, and the T/C (endpoint: median survival time, dose: 0.31 mg/kg/injection, schedule: Q01DX009 (ip), vehicle: saline with Tween-80, higher = longer survival) was 100 % of control, the T/C (endpoint: median survival time, dose: 0.62 mg/kg/injection, schedule: Q01DX009 (ip), vehicle: saline with Tween-80, higher = longer survival) was 103 % of control and the T/C (endpoint: median survival time, dose: 0.75 mg/kg/injection, schedule: Q01DX009 (ip), vehicle: Klucel (hydroxypropylcellulose) (HPC), higher = longer survival) was 94 % of control. For the same compound, the T/C (endpoint: median survival time, dose: 1.25 mg/kg/injection, schedule: Q01DX009 (ip), vehicle: saline with Tween-80, higher = longer survival) was 109 % of control, the T/C (endpoint: median survival time, dose: 1.5 mg/kg/injection, schedule: Q01DX009 (ip), vehicle: Klucel (hydroxypropylcellulose) (HPC), higher = longer survival) was 86 % of control and the T/C (endpoint: median survival time, dose: 2.5 mg/kg/injection, schedule: Q01DX009 (ip), vehicle: saline with Tween-80, higher = longer survival) was 86 % of control. For the same compound, the T/C (endpoint: median survival time, dose: 3.0 mg/kg/injection, schedule: Q01DX009 (ip), vehicle: Klucel (hydroxypropylcellulose) (HPC), higher = longer survival) was 101 % of control, the T/C (endpoint: median survival time, dose: 6.0 mg/kg/injection, schedule: Q01DX009 (ip), vehicle: Klucel (hydroxypropylcellulose) (HPC), higher = longer survival) was 100 % of control and the T/C (endpoint: median survival time, dose: 8.0 mg/kg/injection, schedule: Q01DX009 (ip), vehicle: saline with Tween-80, higher = longer survival) was 114 % of control. The T/C (endpoint: median survival time, dose: 12.0 mg/kg/injection, schedule: Q01DX009 (ip), vehicle: saline with Tween-80, higher = longer survival) was 112 % of control, the T/C (endpoint: median survival time, dose: 15.0 mg/kg/injection, schedule: Q04DX003 (ip), vehicle: saline with Tween-80, higher = longer survival) was 106 % of control and the T/C (endpoint: median survival time, dose: 20.0 mg/kg/injection, schedule: Q01DX001 (ip), vehicle: saline with Tween-80, higher = longer survival) was 123 % of control. For the same compound, the T/C (endpoint: median survival time, dose: 20.0 mg/kg/injection, schedule: Q04DX003 (ip), vehicle: saline with Tween-80, higher = longer survival) was 112 % of control, the T/C (endpoint: median survival time, dose: 30.0 mg/kg/injection, schedule: Q01DX001 (ip), vehicle: saline with Tween-80, higher = longer survival) was 112 % of control and the T/C (endpoint: median survival time, dose: 30.0 mg/kg/injection, schedule: Q04DX003 (ip), vehicle: saline with Tween-80, higher = longer survival) was 115 % of control. The T/C (endpoint: median survival time, dose: 45.0 mg/kg/injection, schedule: Q01DX001 (ip), vehicle: saline with Tween-80, higher = longer survival) was 119 % of control.
For C=C1C(=O)O[C@@H]2[C@H]3O[C@]3(C)CCC=C(C)CC[C@@H]12, the T/C [1] was 110 % of control, the T/C (endpoint: median survival time, dose: 25.0 mg/kg/injection, schedule: Q01DX009 (ip), vehicle: Klucel (hydroxypropylcellulose) (HPC), higher = longer survival) was 97 % of control and the T/C (endpoint: median survival time, dose: 50.0 mg/kg/injection, schedule: Q01DX009 (ip), vehicle: Klucel (hydroxypropylcellulose) (HPC), higher = longer survival) was 93 % of control.
CSc1ncc(Br)c(Sc2nc(N)nc3nc[nH]c23)n1 was tested, and the T/C (endpoint: mean tumor weight, dose: 5.0 mg/kg/injection, schedule: Q01DX011 (ip), vehicle: other, higher = larger tumour) was 57 % of control, the T/C (endpoint: mean tumor weight, dose: 10.0 mg/kg/injection, schedule: Q01DX011 (ip), vehicle: other, higher = larger tumour) was 100 % of control and the T/C (endpoint: mean tumor weight, dose: 20.0 mg/kg/injection, schedule: Q01DX011 (ip), vehicle: other, higher = larger tumour) was 65 % of control.
COC1C(OC(=O)/C=C/C=C/C=C/C=C/C(=O)O)CCC2(CO2)C1C1(C)OC1CC=C(C)C (centres undefined) was tested, and the T/C [2] was 82 % of control, the T/C [3] was 38 % of control and 49 % of control and the T/C [4] was 54 % of control. For the same compound, the T/C [5] was 23 % of control.
For C[n+]1ccc(Nc2ccc(NC(=O)c3ccc(Nc4cc[n+](C)c5ccc(N)cc45)cc3N)cc2)cc1, the T/C (endpoint: mean tumor weight, dose: 6.25 mg/kg/injection, schedule: Q01DX011 (ip), vehicle: saline, higher = larger tumour) was 158 % of control, the T/C [6] was 40 % of control and the T/C (endpoint: median survival time, dose: 3.13 mg/kg/injection, schedule: Q01DX009 (ip), vehicle: Klucel (hydroxypropylcellulose) (HPC), higher = longer survival) was 243 % of control. For the same compound, the T/C [1] was 244 % of control.
With CC1=CC(=O)N(NC(N)=O)C1=O the T/C (endpoint: median survival time, dose: 12.5 mg/kg/injection, schedule: Q01DX009 (ip), vehicle: saline, higher = longer survival) was 107 % of control, the T/C (endpoint: median survival time, dose: 25.0 mg/kg/injection, schedule: Q01DX009 (ip), vehicle: saline, higher = longer survival) was 104 % of control and the T/C [7] was 90 % of control.
With Cc1c2ccncc2c(C)c2c1[nH]c1ccccc12 the T/C (endpoint: median survival time, dose: 37.5 mg/kg/injection, schedule: Q04DX003 (ip), vehicle: saline with Tween-80, higher = longer survival) was 120 % of control and the T/C (endpoint: median survival time, dose: 75.0 mg/kg/injection, schedule: Q04DX003 (ip), vehicle: saline with Tween-80, higher = longer survival) was 87 % of control.
CC(C)=CCC/C(C)=C/C=O was tested, and the T/C (endpoint: mean tumor weight, dose: 50.0 mg/kg/injection, schedule: Q01DX010 (ip), vehicle: saline, higher = larger tumour) was 84 % of control and the T/C (endpoint: mean tumor weight, dose: 100.0 mg/kg/injection, schedule: Q01DX010 (ip), vehicle: saline, higher = larger tumour) was 61 % of control.
For COc1cccc(C=O)c1O, the T/C (endpoint: mean tumor weight, dose: 12.5 mg/kg/injection, schedule: Q01DX011 (ip), vehicle: carboxymethylcellulose (CMC), higher = larger tumour) was 106 % of control, the T/C (endpoint: mean tumor weight, dose: 25.0 mg/kg/injection, schedule: Q01DX011 (ip), vehicle: carboxymethylcellulose (CMC), higher = larger tumour) was 58 % of control and the T/C (endpoint: mean tumor weight, dose: 50.0 mg/kg/injection, schedule: Q01DX011 (ip), vehicle: carboxymethylcellulose (CMC), higher = larger tumour) was 88 % of control.
In the case of CCCCn1cnc2c(=S)nc[nH]c21, the T/C (endpoint: mean tumor weight, dose: 15.0 mg/kg/injection, schedule: Q01DX011 (ip), vehicle: water, higher = larger tumour) is reported as 49 % of control, the T/C (endpoint: mean tumor weight, dose: 30.0 mg/kg/injection, schedule: Q01DX011 (ip), vehicle: water, higher = larger tumour) is reported as 60 % of control and the T/C (endpoint: mean tumor weight, dose: 60.0 mg/kg/injection, schedule: Q01DX011 (ip), vehicle: water, higher = larger tumour) is reported as 53 % of control.
CCCCOB(/C=C/Sc1ccccc1)OCCCC was tested, and the T/C (endpoint: median survival time, dose: 50.0 mg/kg/injection, schedule: Q01DX009 (ip), vehicle: saline with Tween-80, higher = longer survival) was 95 % of control.
In the case of CC1CN1c1nc(N2CC2C)nc(N2CC2C)n1 (centres undefined), the T/C (endpoint: median survival time, dose: 1.0 mg/kg/injection, schedule: Q01DX009 (ip), vehicle: saline, higher = longer survival) is reported as 106 % of control, the T/C (endpoint: median survival time, dose: 2.0 mg/kg/injection, schedule: Q01DX009 (ip), vehicle: saline, higher = longer survival) is reported as 86 % of control and the T/C (endpoint: median survival time, dose: 4.0 mg/kg/injection, schedule: Q01DX009 (ip), vehicle: saline, higher = longer survival) is reported as 105 % of control. For the same compound, the T/C (endpoint: median survival time, dose: 8.0 mg/kg/injection, schedule: Q01DX009 (ip), vehicle: saline, higher = longer survival) was 105 % of control.
c1cc2n(n1)CCN2 was tested, and the T/C (endpoint: mean tumor weight (est.), dose: 50.0 mg/kg/injection, schedule: Q01DX009 (ip), vehicle: saline, higher = larger tumour) was 56 % of control, the T/C (endpoint: mean tumor weight (est.), dose: 100.0 mg/kg/injection, schedule: Q01DX009 (ip), vehicle: saline, higher = larger tumour) was 37 % of control and the T/C (endpoint: mean tumor weight (est.), dose: 100.0 mg/kg/injection, schedule: Q04DX003 (ip), vehicle: saline, higher = larger tumour) was 70 % of control. For the same compound, the T/C (endpoint: mean tumor weight (est.), dose: 200.0 mg/kg/injection, schedule: Q01DX009 (ip), vehicle: saline, higher = larger tumour) was 36 % of control, the T/C (endpoint: mean tumor weight (est.), dose: 200.0 mg/kg/injection, schedule: Q04DX003 (ip), vehicle: saline, higher = larger tumour) was 79 % of control and the T/C (endpoint: mean tumor weight (est.), dose: 400.0 mg/kg/injection, schedule: Q04DX003 (ip), vehicle: saline, higher = larger tumour) was 57 % of control. The T/C [2] was 97 % of control, the T/C [3] was 84 % of control and the T/C [4] was 82 % of control. The T/C [5] was 7 % of control, the T/C [7] was 122 % of control and the T/C (endpoint: median survival time, dose: 100.0 mg/kg/injection, schedule: Q01DX009 (ip), vehicle: saline, higher = longer survival) was 100 % of control. The T/C (endpoint: median survival time, dose: 100.0 mg/kg/injection, schedule: Q04DX003 (ip), vehicle: saline, higher = longer survival) was 102 % of control, the T/C (endpoint: median survival time, dose: 200.0 mg/kg/injection, schedule: Q01DX009 (ip), vehicle: saline, higher = longer survival) was 100 % of control and the T/C (endpoint: median survival time, dose: 400.0 mg/kg/injection, schedule: Q04DX003 (ip), vehicle: saline, higher = longer survival) was 88 % of control.
For NC(Cc1cc(I)c(Oc2ccc(O)c(I)c2)c(I)c1)C(=O)O (centres undefined), the T/C (endpoint: mean tumor weight, dose: 25.0 micrograms/kg/injection, schedule: Q01DX011 (ip), vehicle: saline, higher = larger tumour) was 93 % of control, the T/C (endpoint: mean tumor weight, dose: 100.0 micrograms/kg/injection, schedule: Q01DX011 (ip), vehicle: saline, higher = larger tumour) was 115 % of control and the T/C (endpoint: mean tumor weight, dose: 200.0 micrograms/kg/injection, schedule: Q01DX011 (ip), vehicle: saline, higher = larger tumour) was 118 % of control.
With COc1cccc(/C=N/C(=S)NC2(C)C3CCC(C3)C2(C)C)c1O (centres undefined) the T/C (endpoint: median survival time, dose: 6.25 mg/kg/injection, schedule: Q01DX009 (ip), vehicle: olive oil, sesame oil, peanut oil, higher = longer survival) was 98 % of control, the T/C (endpoint: median survival time, dose: 12.5 mg/kg/injection, schedule: Q01DX009 (ip), vehicle: olive oil, sesame oil, peanut oil, higher = longer survival) was 94 % of control and the T/C (endpoint: median survival time, dose: 100.0 mg/kg/injection, schedule: Q01DX009 (ip), vehicle: olive oil, sesame oil, peanut oil, higher = longer survival) was 90 % of control.
With CC1CCCCN1 (centres undefined) the T/C [6] was 95 % of control, the T/C [2] was 85 % of control and the T/C [3] was 80 % of control.
With O=C1C2C3CCC(O3)C2C(=O)N1c1nccs1 (centres undefined) the T/C (endpoint: mean tumor weight, dose: 62.5 mg/kg/injection, schedule: Q01DX011 (ip), vehicle: carboxymethylcellulose (CMC), higher = larger tumour) was 75 % of control and the T/C (endpoint: mean tumor weight, dose: 125.0 mg/kg/injection, schedule: Q01DX011 (ip), vehicle: carboxymethylcellulose (CMC), higher = larger tumour) was 71 % of control.

Reference: PubChem BioAssay AID270 (DTP/NCI, 2004)
